Measured values as given in patent publication US6160008A, “Pharmaceutical compositions comprising S-alkylisothiouronium derivatives” (priority 1996, dated 2000).
“Also recorded” adds a separate entry of the source.

How the values were obtained:
[1] = test system: system hemodynamic indices during hemorrhagic shock; experiment: System hemodynamic indices during hemorrhagic shock (Table 4); format: in vivo, cats
Procedure: For the experimental model of hemorrhagic shock closely resembling acute clinical situations, acute blood loss in cats was chosen (3.2% of the body mass) which constitutes 45-47% of the blood circulation volume during 3-5 minutes. To determine maximum efficiency and effective duration, parameters of the system blood circulation were determined before blood-letting and in 30 minutes after blood-letting, as well as on the 2nd, 10th, 30th and 60th minutes after intravenous injection of the medicine.

[2] = test system: acid-base balance and gas composition of mixed venous blood; experiment: Acid-base balance and gas composition of mixed venous blood in hemorrhagic shock (Table 7); format: in vivo, cats; conditions: 5 mg/kg i.v.; for Bicarbonate ion content (HCO3 a) / Buffer bases (BBa) / Buffer bases shift (BBa) / Carbonic acid gas tension (PaCO2): mixed venous blood
Procedure: The influence of S-ethylisothiouronium diethylphosphate on the major indices of the blood acid-base state (AAS) and gas content in hemorrhagic shock was studied at a dose of 5 mg/kg. The cats were narcotized intraperitoneally with pentobarbital sodium (nembutal) at a dose of 40 mg/kg. The blood loss was caused by blood-letting from the common carotid artery in an amount of 3.2% of the animal body mass, which approximately corresponds to 45-47% of the blood circulation volume. The blood-letting was carried out during 3-5 minutes. Tension characteristics of oxygen and carbon dioxide in arterial (PaO2, PaCO2) and mixed venous (PvO2, PvCO2) blood, pHa and pH were studied by Astrup micromethod. The hemoglobin content (Hb) was determined by the cianohemoglobin method. Bicarbonate ion content /HCO3 was calculated with the help of the Severinghause ruler. Calculations were carried out on the CM-1403-02 computer in the Forhtran language program. Indices of the acid-base balance and blood gas content were studied in the initial state, on the 30th minute after acute bleeding as well as on 2nd, 10th, 30th, and 60th minute after the medicine injection. The substance was injected singly intravenously on the 30th minute after the blood-letting.
In the test group (n=6), S-ethylisothiouronium diethylphosphate was injected at a dose of 5 mg/kg.

[3] = Biochemical indices of mice blood serum, acute experiment (Table 8); format: in vivo, F1 (C57B1×CBA); conditions: 500 mg/kg i.v.; for Total protein: in g/L (unit assumed)
Procedure: The effect of S-ethylisothiouronium diethylphosphate on body constituents was estimated in chronic and acute experiments. These experiments were conducted on F1 (C57B1×CBA) line mice and biochemical tests were made after a single administration of S-ethylisothiouronium diethylphosphate, injected intravenously at doses of 100 mg/kg (in the chronic experiment) and 500 mg/kg (in the acute experiment).
In the acute experiment, blood was taken 30, 60 and 75 minutes after the administration of the medicine. In the chronic experiment (which lasted 30 days), blood was daily examined 1 hour after the injection. Terms of the study were 1, 7, 14, and 21 days. The concentrations of total protein, total cholesterol, and glucose in mice blood serum were determined by conventional methods. Total protein was determined by a biuret method, total cholesterol--by like method, glucose--by the glucose-oxidase method.
Mouse blood was obtained after rapid decapitation. Tested material was sampled at the same time of the day and on the same season.
Blood for serum was sampled into centrifuge test tubes, put into the thermostat for 30-40 minutes; the clot was outlined by a needle, then it was put into a refrigerator for 1 hour+4° C. After cooling it was centrifuged at 3000 RPM during 10-15 minutes. Serum with no signs of hemolysis was sampled into a clean tube. All quantitative indices of the blood biochemical characteristics were obtained by spectrophotometric measurements. Calibration curves to determine total protein and cholesterol were constructed in advance.

[4] = test system: mice exposed to an oxygen pressure of 3 atm; experiment: Survival under oxygen pressure of 3 atm, mice (Table 15); format: in vivo, F1 (CBAx57B1); conditions: for Number of survived animals: mice, 3 atm, 5 hours
Procedure: Animals were exposed to oxygen under increased pressure in a hyperbaric chamber <<Mana-2≤≤ for treatment of infants above 1 year, which was adjusted for the experiments on animals. The hyperbaric chamber design permitted to create excessive pressure up to 3 atm and to observe animal behavior from outside.
The experiments were performed on males of F1 (CBAx57B1) mice line and on males of Wistar rat line. Animals were placed in the hyperbaric chamber in plastic boxes and the atmospheric air was replaced by oxygen. The period of compression-decompression was 10 minutes. The exposure of the animals to an oxygen pressure of 3 atm during a period of 2 hours caused only some increase in their motion activity. Further staying of rats and mice in those conditions led to a decrease in the motion activity, to asphyxia with short periods of excitement and cramps. The death of some animals was registered after 2.5-3 hours, 50% after 4 hours, and 75% of mice and 100% of rats were dead after 5 hours.
When the influence of Difetur and Etyron was studied, the animals were exposed to an oxygen pressure of 3 atm during 5 hours if not otherwise specified. Preparations were injected 5-10 minutes before the session.

[5] = 5 mg/kg i.v., 2 min after injection
[6] = 5 mg/kg i.v., 10 min after injection
[7] = 5 mg/kg i.v., 30 min after injection
[8] = 5 mg/kg i.v., 60 min after injection

CCSC(=N)N [S-ethylisothiouronium diethylphosphate]
AP increase compared to the 30th minute after bleeding ([1]; 5 mg/kg i.v., 2nd minute): 88%
ALV [1, 5]: 166.6 ± 18.4 g/cm
AP [1, 5]: 122.3 ± 6.0 mm Hg
Central blood volume [1, 5]: 58.6 ± 4.1 mL
HF [1, 5]: 182.0 ± 15.0 per min.
MVC [1, 5]: 52.4 ± 6.0 mL/min/kg
Number of blood circulations [1, 5]: 2.9 ± 0.2 min
Pr [1, 5]: 202.8 ± 28.7 10^3 . din . c . cm^-3
Stroke volume [1, 5]: 1.0 ± 0.1 mL
ALV [1, 6]: 130.5 ± 15.4 g/cm
AP [1, 6]: 112.5 ± 7.6 mm Hg
Central blood volume [1, 6]: 49.2 ± 4.5 mL
HF [1, 6]: 186.0 ± 14.1 per min.
MVC [1, 6]: 46.0 ± 5.7 mL/min/kg
Number of blood circulations [1, 6]: 3.0 ± 0.2 min
Pr [1, 6]: 225.1 ± 56.6 10^3 . din . c . cm^-3
Stroke volume [1, 6]: 0.9 ± 0.1 mL
ALV [1, 7]: 75.9 ± 19.4 g/cm
AP [1, 7]: 87.5 ± 15.4 mm Hg
Central blood volume [1, 7]: 43.2 ± 4.7 mL
HF [1, 7]: 179.1 ± 12.4 per min.
MVC [1, 7]: 30.8 ± 5.5 mL/min/kg
Number of blood circulations [1, 7]: 2.4 ± 0.3 min
Pr [1, 7]: 244.7 ± 39.1 10^3 . din . c . cm^-3
Stroke volume [1, 7]: 0.6 ± 0.1 mL
ALV [1, 8]: 77.0 ± 17.0 g/cm
AP [1, 8]: 84.2 ± 18.9 mm Hg
Central blood volume [1, 8]: 45.5 ± 5.1 mL
HF [1, 8]: 166.8 ± 15.2 per min.
MVC [1, 8]: 35.7 ± 5.5 mL/min/kg
Number of blood circulations [1, 8]: 3.5 ± 0.2 min
Pr [1, 8]: 245.3 ± 62.6 10^3 . din . c . cm^-3
Stroke volume [1, 8]: 0.7 ± 0.1 mL
MVC increase ([1]; 5 mg/kg i.v., initially): 19%
Effect in hemorrhagic shock in words ([1]; hemorrhagic shock, cats): the decrease in HR was noted; also recorded: SV increased only on the 2nd minute after the medicine injection; also recorded: Alv essentially increased on the 2nd and 10th minutes; also recorded: PR increased during the whole period of observation; also recorded: practically does not lose efficiency in case of metabolic acidosis; also recorded: improves system hemodynamic indices in hemorrhagic shock conditions; also recorded: the peripheral vascular resistance increases, the stroke volume and central blood volume increase, and the work of the left ventricle improves
Oxygen tension (PvO2) ([2]; 10 min): 41.866 ± 11.242
pHv ([2]; 10 min after injection): 7.252 ± 0.011
Oxygen tension (PvO2) ([2]; 30 min): 40.533 ± 11.332
pHv ([2]; 30 min after injection): 7.222 ± 0.016
Oxygen tension (PvO2) ([2]; 60 min): 27.783 ± 4.824
pHv ([2]; 60 min after injection): 7.150 ± 0.130
Bicarbonate ion content (HCO3 a) ([2]; 10 min): 17.116 ± 1.576 mmol/L
Buffer bases (BBa) ([2]; 10 min): 34.500 ± 2.342 mmol/L
Buffer bases shift (BBa) ([2]; 10 min): -8.500 ± 1.491 mmol/L
Carbonic acid gas tension (PaCO2) ([2]; 10 min): 40.516 ± 4.340 mm Hg
Bicarbonate ion content (HCO3 a) ([2]; 30 min): 16.150 ± 1.951 mmol/L
Buffer bases (BBa) ([2]; 30 min): 32.266 ± 3.254 mmol/L
Buffer bases shift (BBa) ([2]; 30 min): -9.966 ± 1.388 mmol/L
Carbonic acid gas tension (PaCO2) ([2]; 30 min): 40.350 ± 4.611 mm Hg
Bicarbonate ion content (HCO3 a) ([2]; 60 min): 17.800 ± 2.162 mmol/L
Buffer bases (BBa) ([2]; 60 min): 33.833 ± 3.943 mmol/L
Buffer bases shift (BBa) ([2]; 60 min): -11.266 ± 2.569 mmol/L
Carbonic acid gas tension (PaCO2) ([2]; 60 min): 55.533 ± 5.049 mm Hg
Body mass ([3]; 30 min): 24.8 ± 1.2 g
Glucose ([3]; 30 min): 13.4 ± 2.6 mmol/L
Total cholestrol ([3]; 30 min): 7.8 ± 1.2 mmol/L
Total protein ([3]; 30 min): 99.0 ± 4.3
Serum biochemistry in words ([3]; 30 minutes): an increase in the concentration of total protein, cholesterol and glucose was observed, which subsequently had the tendency for normalization
Body mass ([3]; 60 min): 26.1 ± 1.8 g
Glucose ([3]; 60 min): 9.0 ± 0.8 mmol/L
Total cholestrol ([3]; 60 min): 7.2 ± 1.6 mmol/L
Total protein ([3]; 60 min): 89.4 ± 4.6
Body mass ([3]; 75 min): 26.0 ± 0.5 g
Glucose ([3]; 75 min): 6.6 ± 1.0 mmol/L
Total cholestrol ([3]; 75 min): 5.4 ± 1.2 mmol/L
Total protein ([3]; 75 min): 87.6 ± 3.8
Number of survived animals ([4]; 5 mg/kg): 25%
Number of survived animals ([4]; 10 mg/kg): 65%
Number of survived animals ([4]; 20 mg/kg): 88%
Oxygen protective activity compared with Etyron ([4]; mouse, in vivo): exceed Etyron in oxygen protective activity
